# Data published in ChEMBL document CHEMBL1148964, “New furofuran and butyrolactone lignans with antioxidant activity from the stem bark of Styrax japonica” (J Nat Prod, 2004).
# Test system: Radical scavenging activity
# Experiment: Antioxidant activity assessed as DPPH radical scavenging activity after 30 mins
# Format: functional
row,IC50 [µM],Structure (SMILES)
1,278,COc1cc(C[C@@H]2C(=O)OC[C@H]2Cc2ccc(O[C@@H]3O[C@H](CO)[C@@H](O)[C@H](O)[C@H]3O)c(OC)c2)ccc1O [STYRAXLIGNOLIDE D]
2,194,COc1cc(C[C@@H]2COC(=O)[C@H]2Cc2ccc(O[C@@H]3O[C@H](CO)[C@@H](O)[C@H](O)[C@H]3O)c(OC)c2)ccc1O [STYRAXLIGNOLIDE E]
3,> 500,COc1ccc(C[C@@H]2C(=O)OC[C@H]2Cc2ccc(O[C@@H]3O[C@H](CO)[C@@H](O)[C@H](O)[C@H]3O)c(OC)c2)cc1OC [STYRAXLIGNOLIDE F]

# The remaining lines, values behind:
row,Structure (SMILES),IC50 [µM]
1,Cc1c(C)c2c(c(C)c1O)CC[C@@](C)(CCC[C@H](C)CCC[C@H](C)CCCC(C)C)O2 [ALPHA-TOCOPHEROL],20.1
2,COc1cc([C@@H]2OC[C@@H]3[C@H]2C(=O)O[C@H]3c2ccc3c(c2)OCO3)ccc1O[C@@H]1O[C@H](CO)[C@@H](O)[C@H](O)[C@H]1O [STYRAXLIGNOLIDE B],> 500
3,COc1ccc(C[C@@H]2C(=O)OC[C@H]2Cc2ccc(O[C@@H]3O[C@H](CO)[C@@H](O)[C@H](O)[C@H]3O)c(OC)c2)cc1O [STYRAXLIGNOLIDE C],380
4,COc1cc(/C=C/CO)cc(OC)c1O[C@@H]1O[C@H](CO)[C@@H](O)[C@H](O)[C@H]1O [SYRINGIN],> 500
5,CC1(C)CC[C@]2(C)CC=C3[C@]4(C)CC[C@H]5C(C)(C)[C@@H](O)CC[C@]5(C)[C@H]4CC[C@@]3(C)[C@@H]2C1 [TARAXEROL],> 500
